Values quoted from earlier work as cited in patent publication US10481149B2.

Test system: elimination transporters
Settings: sandwich-cultured rat hepatocytes; cited from earlier work

COc1ccc(Cl)cc1C(=O)NCCc1ccc(S(=O)(=O)NC(=O)NC2CCCCC2)cc1 [glibenclamide]
interference with rosuvastatin elimination: 29.3%
